The record followed here is ChEMBL document CHEMBL3407332, “An efficient synthesis of new caffeine-based chalcones, pyrazolines and pyrazolo[3,4-b][1,4]diazepines as potential antimalarial, antitrypanosomal and antileishmanial agents” (Eur J Med Chem, 2015).

The structures appear in SMILES notation. In brackets after ≈: the same amount, converted by molar mass.

Data set [1] is described as follows: Hemolytic activity in human RBC after 48 hrs by spectrophotometric analysis. To be noted: human red blood cells (RBC), read-out: LC50. Type of data set: ADME, cell-based, Erythrocyte.
Data set [2] deals with Plasmodium falciparum. Kind of data set: Antimalarial activity against asynchronic culture of Plasmodium falciparum NF54 assessed as parasite growth inhibition after 48 hrs by ethidium bromide staining-based spectrofluorometric analysis. Type of data set: functional, organism-based. To be noted: NF54, 48 h.
Data set [3] relates to Plasmodium falciparum. The experiment in a line: Antimalarial activity against asynchronic culture of Plasmodium falciparum NF54 assessed as parasite growth inhibition at 20 ug/mL after 48 hrs by ethidium bromide staining-based spectrofluorometric analysis relative to control. Type of data set: functional. To be noted: NF54, 48 h, read-out: GI.
Data set [4] is described as follows: Cytotoxicity against human U937 cells assessed as cell viability after 72 hrs by MTT assay. The note with it: read-out: LC50. Type of data set: cell-based, U-937. Background: Formazan colour is commonly taken as a measure of viable cells.
For data set [5], the system named is Leishmania panamensis. The experiment in a line: Antileishmanial activity against amastigote stage of Leishmania panamensis MHOM/CO/87/UA140-EpiR-GFP infected in human U937 cells assessed as parasite growth inhibition after 72 hrs by flow cytometric analysis. Type of data set: functional, organism-based. The note with it: MHOM/CO/87/UA140, U-937, 72 h. Background: A flow cytometer gives signals particle by particle.

Data set [6] has as its system Leishmania panamensis. Kind of data set: Antileishmanial activity against amastigote stage of Leishmania panamensis MHOM/CO/87/UA140-EpiR-GFP infected in human U937 cells assessed as parasite growth inhibition at 5 ug/mL after 72 hrs by flow cytometric analysis relative to control. Type of data set: functional. The note with it: MHOM/CO/87/UA140, U-937, 72 h, read-out: GI.

Data set [7] concerns Trypanosoma cruzi. Kind of data set: Antitrypanosomal activity against amastigote stage of Trypanosoma cruzi Tulahuen infected in human U937 cells assessed as parasite growth inhibition at 1 ug/mL after 72 hrs by beta-galactosidase reporter gene assay relative to control. Type of data set: functional. To be noted: U-937, 72 h, read-out: GI. For orientation: Reporter assays use an easily measured gene product as a stand-in for the process of interest.

The subject of data set [8] is Trypanosoma cruzi. Kind of data set: Antitrypanosomal activity against amastigote stage of Trypanosoma cruzi Tulahuen infected in human U937 cells assessed as parasite growth inhibition after 72 hrs by beta-galactosidase reporter gene assay. To be noted: U-937, 72 h. Format: functional, organism-based.
The subject of data set [9] is Leishmania panamensis. The experiment in a line: Antileishmanial activity against amastigote stage of Leishmania panamensis MHOM/CO/87/UA140-EpiR-GFP infected in human U937 cells assessed as parasite growth inhibition at 20 ug/mL after 72 hrs by flow cytometric analysis relative to control. Type of data set: functional. To be noted: MHOM/CO/87/UA140, U-937, 72 h, read-out: GI.

The test system of data set [10] is Trypanosoma cruzi. The experiment in a line: Antitrypanosomal activity against amastigote stage of Trypanosoma cruzi Tulahuen infected in human U937 cells assessed as parasite growth inhibition at 20 ug/mL after 72 hrs by beta-galactosidase reporter gene assay relative to control. To be noted: U-937, 72 h, read-out: GI. Format: functional.

For `COc1cc(/C=C/C(=O)c2ccc(C)cc2)ccc1Oc1nc2c(c(=O)n(C)c(=O)n2C)n1C`, the HC50 at 48 h in [1] is greater than 200 µg/mL. For the same compound, the IC50 – broadly, the concentration at which inhibition is half-maximal – in data set [2] stood at 21.4 µg/mL (≈ 46.5 µM). The inhibition of growth at 20 µg/mL in [3] stood at 54.3%. In addition, the CC50 at 72 h in data set [4] was determined as 27.5 µg/mL (≈ 59.7 µM). Also, in data set [5], the EC50 – broadly, the concentration needed to bring the measured effect to its halfway point – came out at 2.6 µg/mL (≈ 5.65 µM). For the same compound, the inhibition of growth at 5 µg/mL in [6] came to 21.8%. The inhibition of growth at 1 µg/mL in data set [7] came to 0%.

For `COc1cc(/C=C/C(=O)c2cc(OC)c(OC)c(OC)c2)ccc1Oc1nc2c(c(=O)n(C)c(=O)n2C)n1C`, the inhibition of growth at 20 µg/mL in data set [3] worked out at 6.4%. The CC50 at 72 h in data set [4] was determined as 3.2 µg/mL (≈ 5.96 µM). Further, the EC50 in [5] was determined as 2.6 µg/mL (≈ 4.85 µM); in [8], 5.9 µg/mL (≈ 11 µM). Besides, in data set [6], the inhibition of growth at 5 µg/mL is 48.8%. The inhibition of growth at 1 µg/mL in [7] turned out to be 9.7%.

For `COc1cc(C2CC(c3ccccc3)=NN2)ccc1Oc1nc2c(c(=O)n(C)c(=O)n2C)n1C` (centres undefined), the HC50 at 48 h in [1] was greater than 200 µg/mL. Besides, in data set [2], the IC50 was found to be 13.7 µg/mL (≈ 29.8 µM). Also, the inhibition of growth at 20 µg/mL in [3] was determined as 85.2%. Also, the CC50 at 72 h in [4] came to 19.8 µg/mL (≈ 43 µM). In data set [6], the inhibition of growth at 5 µg/mL stood at 0%. Moreover, the inhibition of growth at 1 µg/mL in data set [7] came out at 0%.

In the case of `COc1cc(C2CC(c3ccc(Br)cc3)=NN2)ccc1Oc1nc2c(c(=O)n(C)c(=O)n2C)n1C` (centres undefined), the HC50 at 48 h in [1] was greater than 200 µg/mL. Besides, the concentration for half-maximal inhibition (IC50) in data set [2] came out at 20.8 µg/mL (≈ 38.6 µM). In addition, the inhibition of growth at 20 µg/mL stood at 56.8% in data set [3], 60% in data set [9] and 0% in [10]. The CC50 at 72 h in data set [4] was greater than 200 µg/mL. Also, in data set [5], the EC50 is 19.5 µg/mL (≈ 36.2 µM).

Regarding `COc1cc(C2CC(c3ccc(C)cc3)=NN2)ccc1Oc1nc2c(c(=O)n(C)c(=O)n2C)n1C` (centres undefined), the figures for the inhibition of growth at 20 µg/mL in [3], in data set [9] and in data set [10] were 46.1%, 0% and 61.9%, respectively. In data set [4], the CC50 at 72 h was determined as 53.2 µg/mL (≈ 112 µM). The EC50 in data set [8] was found to be 19.4 µg/mL (≈ 40.9 µM).

For the compound `COc1cc(C2CC(c3ccccc3)=NN2C(C)=O)ccc1Oc1nc2c(c(=O)n(C)c(=O)n2C)n1C` (centres undefined), the HC50 at 48 h in data set [1] is greater than 200 µg/mL. Moreover, the IC50 in [2] is 18.4 µg/mL (≈ 36.6 µM). Further, the inhibition of growth at 20 µg/mL in data set [3] was determined as 62.5%. In addition, the CC50 at 72 h in data set [4] was 14.8 µg/mL (≈ 29.5 µM). Besides, the inhibition of growth at 5 µg/mL in [6] stood at 35.2%. Further, the inhibition of growth at 1 µg/mL in [7] worked out at 0%.

Consider `COc1cc(C2CC(c3ccc(C)cc3)=Nc3c(C)nn(-c4ccccc4)c3N2)ccc1Oc1nc2c(c(=O)n(C)c(=O)n2C)n1C` (centres undefined), for which the HC50 at 48 h in data set [1] was greater than 200 µg/mL. The IC50 in data set [2] turned out to be 12.3 µg/mL (≈ 19.5 µM). Also, the inhibition of growth at 20 µg/mL was determined as 93.5% in [3], 0% in data set [9] and 37.7% in data set [10]. Further, in data set [4], the CC50 at 72 h is greater than 200 µg/mL.

Regarding `COc1ccc(C2=Nc3c(C)nn(-c4ccccc4)c3NC(c3ccc(Oc4nc5c(c(=O)n(C)c(=O)n5C)n4C)c(OC)c3)C2)cc1` (centres undefined), in data set [1], the HC50 at 48 h was greater than 200 µg/mL. Moreover, the IC50 in data set [2] was determined as 13.1 µg/mL (≈ 20.3 µM). The inhibition of growth at 20 µg/mL in data set [3] is 84.4%; in data set [9], 0%; in data set [10] it was 26.9%. Further, the CC50 at 72 h in data set [4] is greater than 200 µg/mL.

Consider `COc1cc(C2CC(c3cc(OC)c(OC)c(OC)c3)=Nc3c(C)nn(-c4ccccc4)c3N2)ccc1Oc1nc2c(c(=O)n(C)c(=O)n2C)n1C` (centres undefined), for which the HC50 at 48 h in data set [1] is greater than 200 µg/mL. Also, in [2], the IC50 came to 11.3 µg/mL (≈ 16 µM). For the same compound, the inhibition of growth at 20 µg/mL in data set [3] is 94.2%; in data set [9] it was 0%; in data set [10] it was 56.6%. Besides, the CC50 at 72 h in data set [4] is greater than 200 µg/mL. Further, the EC50 in data set [8] stood at 20.3 µg/mL (≈ 28.7 µM).

With `O=C(Cn1ccnc1[N+](=O)[O-])NCc1ccccc1` [BENZNIDAZOLE], the CC50 at 72 h in data set [4] turned out to be 180 µg/mL (≈ 692 µM). Also, the inhibition of growth at 20 µg/mL in [10] is 100%. Further, the half-maximal effective concentration (EC50) in [8] came to 10.7 µg/mL (≈ 41.1 µM).
